Legend:
Format in all cases: in vivo
Myzus persicae = Myzus persicae leaf dip test (capsicum leaves, third instar nymphs); conditions: foliar, dead and moribund third instar nymphs 72 h after release, compared to untreated controls, read-out: percent mortality
Procedure: The leaf dip method was used for testing, wherein the required quantity of the compound was weighed and dissolved in a tube containing a solvent solution. The tube was put on a vortex at 2000 rpm for proper mixing and then diluted with a 0.01% Triton-X solution to the desired test concentration. Capsicum leaves were dipped in the compound solution for 10 seconds, shade dried for 20 min and then placed, with the abaxial side of the leaf up, in single cells of a bio-assay tray containing 4 ml of a solidified 1% agar-agar solution. Known numbers of third instar nymphs of Myzus persicae, collected in petri plates, were released into the cell with the treated leaf and the cell was covered with a perforated lid for better aeration. The trays were kept in a plant growth chamber at a temperature of 25° C. and a relative humidity of 70%. Observations on dead, moribund and alive nymphs were recorded 72 h after the release. Percent mortality was calculated by combining dead and moribund nymphs and comparing the result with the one of the untreated controls. The compounds

Nilaparvata lugens = Nilaparvata lugens seedling dip test (paddy seedlings, third instar nymphs); conditions: dead and moribund third instar nymphs 72 h after release, compared to untreated controls, read-out: percent mortality
How it was run: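 Paddy seedlings dipped 10 s in compound diluted with 0.01% Triton-X, shade dried, then infested with 15 third-instar nymphs at 25 °C, 75% RH. Mortality (dead plus moribund) scored at 72 h relative to untreated controls.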

Bemisia tabaci = Bemisia tabaci leaf dip test (brinjal leaves, whitefly adults); conditions: foliar, dead and moribund whitefly adults 72 h after release, compared to untreated controls, read-out: percent mortality
How it was run: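 Brinjal leaves were dipped 10 s in compound diluted in 0.01% Triton-X, dried, and placed on agar, then exposed to freshly emerged whitefly adults at 25° C, 70% RH. Dead plus moribund adults were counted at 72 h, and percent mortality was calculated relative to untreated controls.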

| Compound | mortality at 300 ppm (Myzus persicae) | mortality at 300 ppm (Nilaparvata lugens) | mortality at 300 ppm (Bemisia tabaci) |
| --- | --- | --- | --- |
| CS(C)(=O)=Nc1ccc2nn(-c3cccnc3)cc2c1 [Compound 1] | ≥ 70% | ≥ 70% | ≥ 70% |
| CCS(C)(=O)=Nc1ccc2nn(-c3cccnc3)cc2c1 (stereo not shown) [Compound 2] | ≥ 70% | ≥ 70% |  |
| CCS(=O)(CC)=Nc1ccc2nn(-c3cccnc3)cc2c1 [Compound 3] | ≥ 70% | ≥ 70% |  |
| CC(C)S(=O)(=Nc1ccc2nn(-c3cccnc3)cc2c1)C(C)C [Compound 28] | ≥ 70% | ≥ 70% | ≥ 70% |
| CCS(=O)(=Nc1ccc2nn(-c3cccnc3)cc2c1)C(C)C (stereo not shown) [Compound 29] | ≥ 70% | ≥ 70% | ≥ 70% |
| CCS(=O)(=Nc1ccc2nn(-c3cncnc3)cc2c1)C(C)C (stereo not shown) [Compound 32] | ≥ 70% | ≥ 70% | ≥ 70% |
| CCS(=O)(=Nc1ccc2nn(-c3cncc(F)c3)cc2c1)C(C)C (stereo not shown) [Compound 41] | ≥ 70% | ≥ 70% |  |
| O=S(CCC(F)(F)F)(=Nc1ccc2nn(-c3cncnc3)cc2c1)c1ccc(F)cc1 (stereo not shown) [Compound 64] | ≥ 70% | ≥ 70% |  |
| CCS(=O)(=Nc1cccc2nn(-c3cccnc3)cc12)C(C)C (stereo not shown) [Compound 71] | ≥ 70% | ≥ 70% | ≥ 70% |
| CCS(=O)(CC)=Nc1cccc2nn(-c3cccnc3)cc12 [Compound 73] | ≥ 70% | ≥ 70% | ≥ 70% |
| CS(C)(=O)=NC(=O)c1cccc2nn(-c3cccnc3)cc12 [Compound 92, N-(dimethyl(oxo)-λ^6-sulfaneylidene)-2-(pyridin-3-yl)-2H-indazole-4-carboxamide] | ≥ 70% | ≥ 70% |  |
| COc1nn(-c2ccc3nn(-c4cncc(F)c4)cc3c2)c(=O)n1C [Compound 112, 2-(2-(5-fluoropyridin-3-yl)-2H-indazol-5-yl)-5-methoxy-4-methyl-2,4-dihydro-3H-1,2,4-triazol-3-one] | ≥ 70% | ≥ 70% |  |
| COc1nn(-c2ccc3nn(-c4cccnc4)cc3c2)c(=O)n1Cc1ccc(F)cc1 [Compound 124, 4-(4-fluorobenzyl)-5-methoxy-2-(2-(pyridin-3-yl)-2H-indazol-5-yl)-2,4-dihydro-3H-1,2,4-triazol-3-one] | ≥ 70% |  | ≥ 70% |
| CCCS(=O)(CC)=Nc1ccc2nn(-c3cccnc3)cc2c1 (stereo not shown) [Compound 137] | ≥ 70% | ≥ 70% |  |
| CS(C)(=O)=Nc1cnc2nn(-c3cccnc3)cc2c1 [Compound 146] | ≥ 70% | ≥ 70% |  |
| CCS(C)(=O)=Nc1cnc2nn(-c3cccnc3)cc2c1 (stereo not shown) [Compound 147] | ≥ 70% | ≥ 70% |  |
| CCS(=O)(=Nc1cnc2nn(-c3cccnc3)cc2c1)C(C)C (stereo not shown) [Compound 148] | ≥ 70% | ≥ 70% |  |
| CS(=O)(=Nc1ccc2nn(-c3cccnc3)cc2n1)C1CCCCC1 (stereo not shown) [Compound 216] | ≥ 70% |  | ≥ 70% |
| CC(C)S(C)(=O)=Nc1ccc(Cl)c2nn(-c3cccnc3)cc12 (stereo not shown) [Compound 218] | ≥ 70% |  | ≥ 70% |
| CS(C)(=O)=Nc1ccc2nn(-c3cccnc3)cc2n1 [Compound 224] | ≥ 70% |  | ≥ 70% |
| COCCS(C)(=O)=Nc1ccc2nn(-c3cncnc3)cc2n1 (stereo not shown) [Compound 237] | ≥ 70% |  | ≥ 70% |

| Compound | mortality at 300 ppm (Myzus persicae) | mortality at 300 ppm (Nilaparvata lugens) | mortality at 300 ppm (Bemisia tabaci) |
| --- | --- | --- | --- |
| CCCS(C)(=O)=Nc1ccc2nn(-c3cccnc3)cc2n1 (stereo not shown) [Compound 239] | ≥ 70% |  | ≥ 70% |
| CCS(C)(=O)=Nc1ccc2nn(-c3cccnc3)cc2n1 (stereo not shown) [Compound 248] | ≥ 70% |  | ≥ 70% |
| CCS(=O)(CC)=Nc1ccc2nn(-c3cccnc3)cc2n1 [Compound 249] | ≥ 70% |  | ≥ 70% |
| CCCS(=O)(=Nc1ccc2nn(-c3cccnc3)cc2n1)C(C)C (stereo not shown) [Compound 254] | ≥ 70% |  | ≥ 70% |
| CC(C)S(=O)(=Nc1ccc2nn(-c3cccnc3)cc2n1)C(C)C [Compound 255] | ≥ 70% |  | ≥ 70% |
| CCC(C)S(=O)(=Nc1ccc2nn(-c3cccnc3)cc2n1)C(C)C (stereo not shown) [Compound 287] | ≥ 70% |  | ≥ 70% |
| CC(C)S(=O)(CC1CC1)=Nc1ccc2nn(-c3cccnc3)cc2n1 (stereo not shown) [Compound 288] | ≥ 70% |  | ≥ 70% |
| CCC(C)S(=O)(=Nc1ccc2nn(-c3cccnc3)cc2c1)C(C)C (stereo not shown) [Compound 291] | ≥ 70% |  | ≥ 70% |
| CS(C)(=O)=Nc1ccc2nn(-c3cncc(F)c3)cc2n1 [Compound 306] | ≥ 70% |  | ≥ 70% |
| CCS(=O)(=Nc1ccc2nn(-c3cncc(F)c3)cc2n1)C(C)C (stereo not shown) [Compound 312] | ≥ 70% |  | ≥ 70% |
| CCS(C)(=O)=Nc1ccc2nn(-c3cncnc3)cc2n1 (stereo not shown) [Compound 314] | ≥ 70% |  | ≥ 70% |
| CCN=S(=O)(c1ccc2nn(-c3cccnc3)cc2c1)C(C)C (stereo not shown) [Compound 383] | ≥ 70% |  | ≥ 70% |
| CCN=S(=O)(CC1CC1)c1ccc2nn(-c3cccnc3)cc2c1 (stereo not shown) [Compound 388] | ≥ 70% | ≥ 70% |  |
| CCS(=N)(=O)c1ccc2nn(-c3cncnc3)cc2c1 (stereo not shown) [Compound 455, ethyl(imino)(2-(pyrimidin-5-yl)-2H-indazol-5-yl)-λ^6-sulfanone] | ≥ 70% |  | ≥ 70% |
| N=S(=O)(CC(F)(F)F)c1ccc2nn(-c3cncnc3)cc2c1 (stereo not shown) [Compound 458, imino(2-(pyrimidin-5-yl)-2H-indazol-5-yl)(2,2,2-trifluoroethyl)-λ^6-sulfanone] | ≥ 70% |  | ≥ 70% |
| CCCS(=N)(=O)c1ccc2nn(-c3cncc(F)c3)cc2c1 (stereo not shown) [Compound 478, (2-(5-fluoropyridin-3-yl)-2H-indazol-5-yl)(imino)(propyl)-λ^6-sulfanone] | ≥ 70% |  | ≥ 70% |
| CCC(C)S(=N)(=O)c1ccc2nn(-c3cncc(F)c3)cc2c1 (stereo not shown) [Compound 479, sec-butyl(2-(5-fluoropyridin-3-yl)-2H-indazol-5-yl)(imino)-λ^6-sulfanone] | ≥ 70% |  | ≥ 70% |
| CCC(CC)S(=N)(=O)c1ccc2nn(-c3cncc(F)c3)cc2c1 (stereo not shown) [Compound 480, (2-(5-fluoropyridin-3-yl)-2H-indazol-5-yl)(imino)(pentan-3-yl)-λ^6-sulfanone] | ≥ 70% |  | ≥ 70% |
| N=S(=O)(CCCF)c1ccc2nn(-c3cncc(F)c3)cc2c1 (stereo not shown) [Compound 482, (3-fluoropropyl)(2-(5-fluoropyridin-3-yl)-2H-indazol-5-yl)(imino)-λ^6-sulfanone] | ≥ 70% |  | ≥ 70% |
| CC(C)CS(=N)(=O)c1ccc2nn(-c3cccnc3)cc2c1 (stereo not shown) [Compound 557, imino(isobutyl)(2-(pyridin-3-yl)-2H-indazol-5-yl)-λ^6-sulfanone] | ≥ 70% |  | ≥ 70% |
